In the assay the target is Menin-MLL (Homo sapiens (Human), UniProt O00255). The assay is described as follows: Determination of binding constants (Ki) to Menin-MLL (HTRF). The following applies: HTRF, 0.25 nM H-FL-Menin, 3.2 nM FITC-MLL-4-43, 24 hr incubation; for Ki: read-out: Menin-MLL Ki HTRF Assay: Ki.

Consider 21 molecules from patent US11919901B2 (Syndax Pharmaceuticals, Inc., priority 2021, dated 2024).

Sequence of Menin-MLL (O00255 whole entry): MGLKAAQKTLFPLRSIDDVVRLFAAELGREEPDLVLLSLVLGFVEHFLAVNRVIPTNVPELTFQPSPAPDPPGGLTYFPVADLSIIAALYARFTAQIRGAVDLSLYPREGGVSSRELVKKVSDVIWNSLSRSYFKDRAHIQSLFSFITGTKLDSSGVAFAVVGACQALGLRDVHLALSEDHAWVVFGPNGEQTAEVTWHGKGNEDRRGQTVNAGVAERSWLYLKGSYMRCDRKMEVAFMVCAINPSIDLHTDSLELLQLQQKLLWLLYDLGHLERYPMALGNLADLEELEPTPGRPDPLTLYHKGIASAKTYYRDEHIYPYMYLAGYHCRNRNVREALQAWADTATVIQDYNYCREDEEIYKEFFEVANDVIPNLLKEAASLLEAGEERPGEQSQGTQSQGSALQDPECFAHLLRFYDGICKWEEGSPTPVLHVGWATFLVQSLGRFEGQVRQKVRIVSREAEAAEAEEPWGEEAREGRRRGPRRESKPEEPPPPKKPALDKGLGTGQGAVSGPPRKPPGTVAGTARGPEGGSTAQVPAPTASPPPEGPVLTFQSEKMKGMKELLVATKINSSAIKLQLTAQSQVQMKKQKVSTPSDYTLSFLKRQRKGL

The EC50 is the concentration at which the effect is half-maximal. Low values mean a more potent agent, high ones a less potent agent. Usually Ki stands for a dissociation constant, usually derived from enzyme kinetics or from competition with a known ligand. For `CC(C)N(C(=O)c1cc(F)ccc1Oc1cncnc1N1CC2(CCN(C[C@@H]3CC[C@@H](NS(=O)(=O)C4COC4)CO3)CC2)C1)C1CC(F)(F)C1` [Compound 115, N-(3,3-Difluorocyclobutyl)-5-fluoro-N-isopropyl-2-((4-(7-(((2S,5R)-5-(oxetane-3-sulfonamido)tetrahydro-2H-pyran-2-yl)methyl)-2,7-diazaspiro[3.5]nonan-2-yl)pyrimidin-5-yl)oxy)benzamide], the EC50 was less than 50 nM and the Ki was less than 1 nM. In the case of `CC(C)N(C(=O)c1cc(F)ccc1Oc1cncnc1N1CC2(CCN(C[C@@H]3CC[C@@H](NS(=O)(=O)N4CCOCC4)CO3)CC2)C1)C1CC(F)(F)C1` [Compound 116, N-(3,3-Difluorocyclobutyl)-5-fluoro-N-isopropyl-2-((4-(7-(((2S,5R)-5-(morpholine-4-sulfonamido)tetrahydro-2H-pyran-2-yl)methyl)-2,7-diazaspiro[3.5]nonan-2-yl)pyrimidin-5-yl)oxy)benzamide], the EC50 was less than 50 nM and the Ki was less than 1 nM. For `CC(C)N(C(=O)c1cc(F)ccc1Oc1cncnc1N1CC2(CCN(C[C@@H]3CC[C@@H](NS(N)(=O)=O)CO3)CC2)C1)C1CC(F)(F)C1` [Compound 117, N-(3,3-Difluorocyclobutyl)-5-fluoro-N-isopropyl-2-((4-(7-(((2S,5R)-5-(sulfamoylamino)tetrahydro-2H-pyran-2-yl)methyl)-2,7-diazaspiro[3.5]nonan-2-yl)pyrimidin-5-yl)oxy)benzamide], in that order: less than 50 nM and less than 1 nM. As for `C[C@@H]1COC[C@@H](C)N1C(=O)c1cc(F)ccc1Oc1cncnc1N1CC2(CCN(C[C@@H]3CC[C@@H](NS(=O)(=O)N4CCCC4)CO3)CC2)C1` [Compound 124, N-((3R,6S)-6-((2-(5-(2-((3R,5R)-3,5-Dimethylmorpholine-4-carbonyl)-4-fluorophenoxy)pyrimidin-4-yl)-2,7-diazaspiro[3.5]nonan-7-yl)methyl)tetrahydro-2H-pyran-3-yl)pyrrolidine-1-sulfonamide], the inhibitory constant (Ki) was less than 1 nM. On to `C[C@@H]1COC[C@@H](C)N1C(=O)c1cc(F)ccc1Oc1cncnc1N1CC2(CCN(C[C@@H]3CC[C@@H](NS(=O)(=O)c4cnn(C)c4)CO3)CC2)C1` [Compound 126], for which the Ki was less than 1 nM. On to `C[C@@H]1COC[C@@H](C)N1C(=O)c1cc(F)ccc1Oc1cncnc1N1CC2(CCN(C[C@@H]3CC[C@@H](NS(=O)(=O)c4ccn(C)n4)CO3)CC2)C1` [Compound 127], for which the Ki was less than 1 nM. As for `CCN(C)S(=O)(=O)N[C@@H]1CC[C@@H](CN2CCC3(CC2)CN(c2ncncc2Oc2ccc(F)cc2C(=O)N2[C@H](C)COC[C@H]2C)C3)OC1` [Compound 128, {[(3R,6S)-6-{[2-(5-{2-[(3R,5R)-3,5-Dimethylmorpholine-4-carbonyl]-4-fluorophenoxy}pyrimidin-4-yl)-2,7-diazaspiro[3.5]nonan-7-yl]methyl}oxan-3-yl]sulfamoyl}(ethyl)methylamine], the Ki was less than 1 nM. Regarding `C[C@@H]1COC[C@@H](C)N1C(=O)c1cc(F)ccc1Oc1cncnc1N1CC2(CCN(C[C@@H]3CC[C@@H](NS(=O)(=O)N(C)C4CC4)CO3)CC2)C1` [Compound 129, N-{[(3R,6S)-6-{[2-(5-{2-[(3R,5R)-3,5-Dimethylmorpholine-4-carbonyl]-4-fluorophenoxy}pyrimidin-4-yl)-2,7-diazaspiro[3.5]nonan-7-yl]methyl}oxan-3-yl]sulfamoyl}-N-methylcyclopropanamine], the Ki is less than 1 nM.

Take `Cc1nc(S(=O)(=O)N[C@@H]2CC[C@@H](CN3CCC4(CC3)CN(c3ncncc3Oc3ccc(F)cc3C(=O)N3[C@H](C)COC[C@@H]3C)C4)OC2)cs1` [Compound 131, N-((3R,6S)-6-((2-(5-(2-((3S,5R)-3,5-Dimethylmorpholine-4-carbonyl)-4-fluorophenoxy)pyrimidin-4-yl)-2,7-diazaspiro[3.5]nonan-7-yl)methyl)tetrahydro-2H-pyran-3-yl)-2-methylthiazole-4-sulfonamide]: the Ki was less than 1 nM.

`CC(C)N(C(=O)c1cc(F)ccc1Oc1cncnc1N1CC2(CCN(C[C@@H]3CC[C@@H](NS(=O)(=O)C(C)C)CO3)CC2)C1)[C@@H]1CCOC1` [Compound 132, 5-Fluoro-N-i sopropyl-2-((4-(7-(((2S,5R)-5-((1-methylethyl)sulfonamido)tetrahydro-2H-pyran-2-yl)methyl)-2,7-diazaspiro[3.5]nonan-2-yl)pyrimidin-5-yl)oxy)-N-((R)-tetrahydrofuran-3-yl)benzamide]: the concentration giving a half-maximal response (EC50) was less than 50 nM and the Ki was less than 1 nM.

As for `Cc1nc(S(=O)(=O)N[C@@H]2CC[C@@H](CN3CCC4(CC3)CN(c3ncncc3Oc3ccc(F)cc3C(=O)N(C(C)C)[C@@H]3CCOC3)C4)OC2)cs1` [Compound 133, 5-Fluoro-N-isopropyl-2-((4-(7-(((2S,5R)-5-((2-methylthiazole)-4-sulfonamido)tetrahydro-2H-pyran-2-yl)methyl)-2,7-diazaspiro[3.5]nonan-2-yl)pyrimidin-5-yl)oxy)-N-((R)-tetrahydrofuran-3-yl)benzamide], the Ki is less than 1 nM.

`Cc1nc(S(=O)(=O)N[C@@H]2CC[C@@H](CN3CCC4(CC3)CN(c3ncncc3Oc3ccc(F)cc3C(=O)N(C(C)C)[C@H]3CCOC3)C4)OC2)cs1` [Compound 135, 5-Fluoro-N-isopropyl-2-((4-(7-(((2S,5R)-5-((2-methylthiazole)-4-sulfonamido)tetrahydro-2H-pyran-2-yl)methyl)-2,7-diazaspiro[3.5]nonan-2-yl)pyrimidin-5-yl)oxy)-N-((S)-tetrahydrofuran-3-yl)benzamide]: the Ki is less than 1 nM. Still for that read-out and setting: as for `CC(C)N(C)C(=O)c1cc(F)ccc1Oc1cncnc1N1CC2(CCN(C[C@@H]3CC[C@@H](NS(=O)(=O)N(C)C)CO3)CC2)C1` [Compound 137, 2-((4-(7-(((2S,5R)-5-((N,N-Dimethylsulfamoyl)amino)tetrahydro-2H-pyran-2-yl)methyl)-2,7-diazaspiro[3.5]nonan-2-yl)pyrimidin-5-yl)oxy)-5-fluoro-N-isopropyl-N-methylbenzamide], the figure is less than 1 nM; as for `CC(C)N(C)C(=O)c1cc(F)ccc1Oc1cncnc1N1CC2(CCN(C[C@@H]3CC[C@@H](NS(=O)(=O)c4cnn(C)c4)CO3)CC2)C1` [Compound 139, 5-Fluoro-N-isopropyl-N-methyl-2-((4-(7-(((2S,5R)-5-((1-methyl-1H-pyrazole)-4-sulfonamido)tetrahydro-2H-pyran-2-yl)methyl)-2,7-diazaspiro[3.5]nonan-2-yl)pyrimidin-5-yl)oxy)benzamide], less than 1 nM. Turning to `CCN(C(=O)c1cc(F)ccc1Oc1cncnc1N1CC2(CCN(C[C@@H]3CC[C@@H](NS(=O)(=O)N(C)CC)CO3)CC2)C1)C(C)C` [Compound 140, N-Ethyl-2-((4-(7-(((2S,5R)-5-((N-ethyl-N-methylsulfamoyl)amino)tetrahydro-2H-pyran-2-yl)methyl)-2,7-diazaspiro[3.5]nonan-2-yl)pyrimidin-5-yl)oxy)-5-fluoro-N-isopropylbenzamide], the inhibitory constant (Ki) was less than 1 nM. Regarding `CC(C)NS(=O)(=O)N[C@@H]1CC[C@@H](CN2CCC3(CC2)CN(c2ncncc2Oc2ccc(F)cc2C(=O)N(CC(F)F)C(C)C)C3)OC1` [Compound 150, N-(2,2-Difluoroethyl)-5-fluoro-N-isopropyl-2-((4-(7-(((2S,5R)-5-((N-isopropylsulfamoyl)amino)tetrahydro-2H-pyran-2-yl)methyl)-2,7-diazaspiro[3.5]nonan-2-yl)pyrimidin-5-yl)oxy)benzamide], the Ki is less than 1 nM. `CCCNS(=O)(=O)N[C@@H]1CC[C@@H](CN2CCC3(CC2)CN(c2ncncc2Oc2ccc(F)cc2C(=O)N(CC(F)F)C(C)C)C3)OC1` [Compound 151, N-(2,2-Difluoroethyl)-5-fluoro-N-isopropyl-2-((4-(7-(((2S,5R)-5-((N-propylsulfamoyl)amino)tetrahydro-2H-pyran-2-yl)methyl)-2,7-diazaspiro[3.5]nonan-2-yl)pyrimidin-5-yl)oxy)benzamide]: the Ki was less than 1 nM. Regarding `CCS(=O)(=O)N[C@@H]1CC[C@@H](CN2CCC3(CC2)CN(c2ncncc2Oc2ccc(F)cc2C(=O)N(CC(F)(F)F)C(C)C)C3)OC1` [Compound 152, 2-((4-(7-(((2S,5R)-5-(Ethylsulfonamido)tetrahydro-2H-pyran-2-yl)methyl)-2,7-diazaspiro[3.5]nonan-2-yl)pyrimidin-5-yl)oxy)-5-fluoro-N-isopropyl-N-(2,2,2-trifluoroethyl)benzamide], the EC50 is less than 50 nM and the Ki is less than 1 nM. Consider `C[C@@H]1COC[C@@H](C)N1C(=O)c1cc(F)ccc1Oc1cncnc1N1CC2(CCN(C[C@@H]3CC[C@@H](NS(=O)(=O)NCC(F)(F)F)CO3)CC2)C1` [Compound 157, {[(3R,6S)-6-{[2-(5-{2-[(3R,5R)-3,5-Dimethylmorpholine-4-carbonyl]-4-fluorophenoxy}pyrimidin-4-yl)-2,7-diazaspiro[3.5]nonan-7-yl]methyl}oxan-3-yl]sulfamoyl}(2,2,2-trifluoroethyl)amine], for which the Ki is less than 1 nM.

With `C[C@@H]1COC[C@@H](C)N1C(=O)c1cc(F)ccc1Oc1cncnc1N1CC2(CCN(C[C@@H]3CC[C@@H](NS(=O)(=O)NC4CC4)CO3)CC2)C1` [Compound 159, N-[(3R,6S)-6-{[2-(5-{2-[(3R,5R)-3,5-Dimethylmorpholine-4-carbonyl]-4-fluorophenoxy}pyrimidin-4-yl)-2,7-diazaspiro[3.5]nonan-7-yl]methyl}oxan-3-yl](cyclopropylamino)sulfonamide], the Ki was less than 1 nM. On the same count and under the same terms, as for `C[C@@H]1COC[C@H](C)N1C(=O)c1cc(F)ccc1Oc1cncnc1N1CC2(CCN(C[C@@H]3CC[C@@H](NS(=O)(=O)N(C)C)CO3)CC2)C1` [Compound 160, {[(3R,6S)-6-{[2-(5-{2-[(3R,5S)-3,5-Dimethylmorpholine-4-carbonyl]-4-fluorophenoxy}pyrimidin-4-yl)-2,7-diazaspiro[3.5]nonan-7-yl]methyl}oxan-3-yl]sulfamoyl}dimethylamine], the figure is less than 1 nM.
